In patent US9353051B2, “Antiviral drugs for treatment or prevention of dengue infection” (Siga Technologies Inc., priority 2007, dated 2016):

Test system: Dengue-2 (Strain New Guinea C)
Assay: viral yield assay against Dengue-2 in Vero cells
Format: cell-based
Details: Dengue virus; Vero cells, MOI 0.1, harvested 48 hours post infection; read-out: Activity (anti-dengue 2 viral activity, EC50)
Experimental: Compounds that were active in the primary screen were also tested for activity in viral yield assays. […] Vero cells in 12-well plates were infected with dengue-2 virus at a multiplicity of infection (MOI) of 0.1, treated with compound (or DMSO as a control), incubated at 37° C., harvested 48 hours post infection and titered on Vero cells as described above. The EC50 was calculated through ExcelFit. Those compounds with activity below 1 μM are indicated with “A”, those with activity between 1 and 10 μM are indicated with “B”, those with activity between 10 and 25 μM with “C”, and those with activity above 25 μM are indicated with “D”.

Structure (SMILES)	EC50
O=C(Cn1cnc2ccccc2c1=O)Nc1ccc(S(=O)(=O)N2CCCCC2)cc1 [Compound 52, 2-(4-Oxo-4H-quinazolin-3-yl)-N-[4-(piperidine-1-sulfonyl)-phenyl]-acetamide]	> 25 µM
CC1CCCN(S(=O)(=O)c2ccc(NC(=O)Cn3cnc4ccccc4c3=O)cc2)C1 (centres unmarked) [Compound 53, N-[4-(3-Methyl-piperidine-1-sulfonyl)-phenyl]-2-(4-oxo-4H-quinazolin-3-yl)-acetamide]	> 25 µM
COC(=O)CNS(=O)(=O)c1ccc(NC(=O)Cn2cnc3ccccc3c2=O)cc1 [Compound 54, {4-[2-(4-Oxo-4H-quinazolin-3-yl)-acetylamino]-benzene-sulfonylamino}-acetic acid methyl ester]	> 25 µM
CC(C)(C)NS(=O)(=O)c1cccc(NC(=O)Cn2cnc3ccccc3c2=O)c1 [Compound 55, N-(3-tert-Butylsulfamoyl-phenyl)-2-(4-oxo-4H-quinazolin-3-yl)-acetamide]	> 25 µM
CCN(CC)S(=O)(=O)c1ccc(NC(=O)Cn2cnc3sc(-c4ccccc4)cc3c2=O)cc1 [Compound 56, N-(4-Diethylsulfamoyl-phenyl)-2-(4-oxo-6-phenyl-4H-thieno[2,3-d]pyrimidin-3-yl)-acetamide]	> 25 µM
CCN(CC)S(=O)(=O)c1ccc(NC(=O)Cn2cnc3cc(F)ccc3c2=O)cc1 [Compound 57, N-(4-Diethylsulfamoyl-phenyl)-2-(7-fluoro-4-oxo-4H-quinazolin-3-yl)-acetamide]	> 25 µM
CCN(CC)S(=O)(=O)c1ccc(NC(=O)Cn2cnc3cc(OC)c(OC)cc3c2=O)cc1 [Compound 58, N-(4-Diethylsulfamoyl-phenyl)-2-(6,7-dimethoxy-4-oxo-4H-quinazolin-3-yl)-acetamicle]	> 25 µM
CCN(CC)S(=O)(=O)c1ccc(NC(=O)Cn2cnc3scc(-c4ccccc4)c3c2=O)cc1 [Compound 59, N-(4-Diethylsulfamoyl-phenyl)-2-(4-oxo-5-phenyl-4H-thieno[2,3-d]pyrimidin-3-yl)-acetamide]	> 25 µM
CCN(CC)S(=O)(=O)c1ccc(NC(=O)Cn2cnc3cc(NC)c([N+](=O)[O-])cc3c2=O)cc1 [Compound 60, N-(4-Diethylsulfamoyl-phenyl)-2-(7-methylamino-6-nitro-4-oxo-4H-quinazolin-3-yl)-acetamide]	> 25 µM
CCN(CC)S(=O)(=O)c1ccc(NC(=O)Cn2cnc3cc(-c4ccc(OC)cc4)sc3c2=O)cc1 [Compound 61, N-(4-Diethylsulfamoyl-phenyl)-2-[6-(4-methoxy-phenyl)-4-oxo-4H-thieno[3,2-d]pyrimidin-3-yl]-acetamide]	> 25 µM
Cc1cccc2c(=O)n(CC(=O)Nc3ccc(S(=O)(=O)N(C)C)cc3)cnc12 [Compound 62, N-(4-Dimethylsulfamoyl-phenyl)-2-(8-methyl-4-oxo-4H-quinazolin-3-yl)-acetamide]	> 25 µM
CCN(CC)S(=O)(=O)c1ccc(NC(=O)CNC(=O)c2cc(C)cc(C)c2)cc1 [Compound 63, N-[(4-Diethylsulfamoyl-phenylcarbamoyl)-methyl]-3,5-dimethyl-benzamide]	> 25 µM
CCN(CC)S(=O)(=O)c1ccc(NC(=O)CSc2nc3ccccc3c(=O)n2CC)cc1 [Compound 64, N-(4-Diethylsulfamoyl-phenyl)-2-(3-ethyl-4-oxo-3,4-dihydro-quinazolin-2-ylsulfanyl)-acetamide]	> 25 µM
CCN(CC)S(=O)(=O)c1cccc(NC(=O)Cn2cnc3ccccc3c2=O)c1 [Compound 65, N-(3-Diethylsulfamoyl-phenyl)-2-(4-oxo-4H-quinazolin-3-yl)-acetamide]	> 25 µM
CCN(CC)S(=O)(=O)c1ccc(C(=O)OCc2nc3ccccc3c(=O)n2CC(N)=O)cc1 [Compound 66, 4-Diethylsulfamoyl-benzoic acid 3-carbamoylmethyl-4-oxo-3,4-dihydro-quinazolin-2-ylmethyl ester]	> 25 µM
CCN(CC)S(=O)(=O)c1ccc(C(=O)Nn2cnc3ccccc3c2=O)cc1 [Compound 67, 4-Diethylsulfamoyl-N-(4-oxo-4H-quinazolin-3-yl)-benzamide]	> 25 µM
CCN(CC)S(=O)(=O)c1ccc(C(C)NC(=O)CCn2nnc3ccccc3c2=O)cc1 (centres unmarked) [Compound 68, N-[1-(4-Diethylsulfamoyl-phenyl)-ethyl]-3-(4-oxo-4H-benzo[d][1,2,3]triazin-3-yl)-propionamide]	> 25 µM
CCN(CC)S(=O)(=O)c1ccc(CNC(=O)Cn2cnc3ccccc3c2=O)cc1 [Compound 69, N-(4-Diethylsulfamoyl-benzyl)-2-(4-oxo-4H-quinazolin-3-yl)-acetamide]	> 25 µM
CCN(CC)S(=O)(=O)c1ccc(NC(=O)CNC(=O)c2cccc(S(=O)(=O)N(C)C)c2)cc1 [Compound 70, N-[(4-Diethylsulfamoyl-phenylcarbamoyl)-methyl]-3-dimethylsulfamoyl-benzamide]	> 25 µM

Structure (SMILES)	EC50
CCN(CC)S(=O)(=O)c1ccc(NC(=O)CSc2nc3ccccc3c(=O)n2C)cc1 [Compound 71, N-(4-Diethylsulfamoyl-phenyl)-2-(3-methyl-4-oxo-3,4-dihydro-quinazolin-2-ylsulfanyl)-acetamide]	> 25 µM
CCN(CC)S(=O)(=O)c1ccc(NC(=O)CNC(=O)c2ccc(C)cc2)cc1 [Compound 72, N-[(4-Diethylsulfamoyl-phenylcarbamoyl)-methyl]-4-methyl-benzamide]	> 25 µM
CCN(CC)S(=O)(=O)c1ccc(NC(=O)CNC(=O)c2ccc(S(=O)(=O)NC(C)C)cc2)cc1 [Compound 73, N-[(4-Diethylsulfamoyl-phenylcarbamoyl)-methyl]-4-isopropylsulfamoyl-benzamide]	> 25 µM
CCN(CC)S(=O)(=O)c1ccc(NC(=O)CNC(=O)c2ccc3ccccc3c2)cc1 [Compound 74, Naphthalene-2-carboxylic acid[(4-diethylsulfamoyl-phenylcarbamoyl)-methyl]-amide]	> 25 µM
CCN(CC(=O)Nc1ccc(S(=O)(=O)N(CC)CC)cc1)Cc1nc2cc(Cl)ccc2c(=O)[nH]1 [Compound 75, 2-[(7-Chloro-4-oxo-3,4-dihydro-quinazolin-2-ylmethyl)-ethyl-amino]-N-(4-diethylsulfamoyl-phenyl)-acetamide]	> 25 µM
CCN(CC)C(=O)c1ccc(NCC(=O)Nc2ccc(S(=O)(=O)N(CC)CC)cc2)cc1 [Compound 76, 4-{[(4-Diethylsulfamoyl-phenylcarbamoyl)-methyl]-amino}-N,N-diethyl-benzamide]	> 25 µM
CCN(CC)S(=O)(=O)c1ccc(NC(=O)CCn2nnc3ccccc3c2=O)cc1 [Compound 77, N-(4-Diethylsulfamoyl-phenyl)-3-(4-oxo-4H-benzo[d][1,2,3]triazin-3-yl)-propionamide]	> 25 µM
CCN(CC)S(=O)(=O)c1ccc(NC(=O)Cn2c(=O)n(CC)c(=O)c3ccccc32)cc1 [Compound 78, N-(4-Diethylsulfamoyl-phenyl)-2-(3-ethyl-2,4-dioxo-3,4-dihydro-2H-quinazolin-1-yl)-acetamide]	> 25 µM
CCN(CC)S(=O)(=O)c1ccc(NC(=O)CNC(=O)c2ccc(OC)c(OC)c2)cc1 [Compound 79, N-[(4-Diethylsulfamoyl-phenylcarbamoyl)-methyl]-3,4-dimethoxy-benzamide]	> 25 µM
CCN(CC)S(=O)(=O)c1ccc(NC(=O)CNC(=O)c2ccc(-c3ccccc3)cc2)cc1 [Compound 80, Biphenyl-4-carboxylic acid [(4-diethylsulfamoyl-phenylcarbamoyl)-methyl]-amide]	> 25 µM
CCN(CC)S(=O)(=O)c1ccc(NC(=O)COC(=O)Cn2nnc3ccccc3c2=O)cc1 [Compound 81, (4-Oxo-4H-benzo[d][1,2,3]triazin-3-yl)-acetic acid (4-diethylsulfamoyl-phenylcarbamoyl)-methyl ester]	> 25 µM
O=C(Cn1nnc2ccccc2c1=O)Nc1ccc(S(=O)(=O)N2CCOCC2)cc1 [Compound 82, N-[4-(Morpholine-4-sulfonyl)-phenyl]-2-(4-oxo-4H-benzo[d][1,2,3]triazin-3-yl)-acetamide]	> 25 µM
CC(NS(=O)(=O)c1ccc(NC(=O)Cn2nnc3ccccc3c2=O)cc1)C1CC2CCC1C2 (centres unmarked) [Compound 83, N-[4-(1-Bicyclo[2.2.1]hept-2-yl-ethylsulfamoyl)-phenyl]-2-(4-oxo-4H-benzo[d][1,2,3]triazin-3-yl)-acetamide]	> 25 µM
CON(C)S(=O)(=O)c1ccc(NC(=O)Cn2nnc3ccccc3c2=O)cc1 [Compound 84, N-[4-(Methoxy-methyl-sulfamoyl)-phenyl]-2-(4-oxo-4H-benzo[d][1,2,3]triazin-3-yl)-acetamide]	> 25 µM
CN(C)S(=O)(=O)c1ccc(NC(=O)Cn2nnc3ccccc3c2=O)cc1 [Compound 85, N-(4-Dimethylsulfamoyl-phenyl)-2-(4-oxo-4H-benzo[d][1,2,3]triazin-3-yl)-acetamide]	> 25 µM
CC(C)N(C)S(=O)(=O)c1ccc(NC(=O)Cn2nnc3ccccc3c2=O)cc1 [Compound 86, N-[4-(Isopropyl-methyl-sulfamoyl)-phenyl]-2-(4-oxo-4H-benzo[d][1,2,3]triazin-3-yl)-acetamide]	> 25 µM
O=C(Cn1nnc2ccccc2c1=O)Nc1ccc(S(=O)(=O)N2CCCCC2)cc1 [Compound 87, 2-(4-Oxo-4H-benzo[d][1,2,3]triazin-3-yl)-N-[4-(piperidine-1-sulfonyl)-phenyl]-acetamide]	> 25 µM
CCN(CC)S(=O)(=O)c1ccc(N(C)C)c(NC(=O)Cn2cnc3ccccc3c2=O)c1 [Compound 88, N-(5-Diethylsulfamoyl-2-dimethylamino-phenyl)-2-(4-oxo-4H-quinazolin-3-yl)-acetamide]	> 25 µM
CCN(CC)S(=O)(=O)c1ccc(C)c(NC(=O)Cn2cnc3ccccc3c2=O)c1 [Compound 89, N-(5-Diethylsulfamoyl-2-methyl-phenyl)-2-(4-oxo-4H-quinazolin-3-yl)-acetamide]	> 25 µM
